In PubChem BioAssay AID256 (DTP/NCI, 2004):
“And” between values parts separate entries of the source, which are not always exact repeats. Equal entries are not always repeated. Toxic doses and inconclusive results are not listed.

Test system: CD2F1 mice, L1210 leukemia ip, survival T/C
Test: NCI In Vivo Anticancer Drug Screen. Data for tumor model L1210 Leukemia (intraperitoneal) in CD2F1 (CDF1) mice
Details: higher = longer survival
Outline: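 Ratio T/C, where T is the treated-group value and C the vehicle-dosed control value, from mice implanted with a transplantable tumor.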

[1] = endpoint: mean survival time, dose: 100.0 mg/kg/injection, schedule: Q01DX001 (ip), vehicle: saline with Tween-80
[2] = endpoint: mean survival time, dose: 100.0 mg/kg/injection, schedule: Q01DX009 (ip), vehicle: saline with Tween-80
[3] = endpoint: mean survival time, dose: 100.0 mg/kg/injection, schedule: Q01DX009 (ip), vehicle: saline
[4] = endpoint: mean survival time, dose: 200.0 mg/kg/injection, schedule: Q01DX009 (ip), vehicle: saline
[5] = endpoint: mean survival time, dose: 400.0 mg/kg/injection, schedule: Q01DX009 (ip), vehicle: saline
[6] = endpoint: mean survival time, dose: 100.0 mg/kg/injection, schedule: Q04DX003 (ip), vehicle: saline with Tween-80
[7] = endpoint: mean survival time, dose: 200.0 mg/kg/injection, schedule: Q04DX003 (ip), vehicle: saline with Tween-80
[8] = endpoint: mean survival time, dose: 400.0 mg/kg/injection, schedule: Q04DX003 (ip), vehicle: saline with Tween-80

## CCCCc1ccc(-n2c(C)c(COC(=O)NC)c(COC(=O)NC)c2C)cc1
endpoint: mean survival time, dose: 1.56 mg/kg/injection, schedule: Q01DX009 (ip), vehicle: Klucel (hydroxypropylcellulose) (HPC)
  T/C: 113 % of control and 112 % of control
endpoint: mean survival time, dose: 3.12 mg/kg/injection, schedule: Q01DX009 (ip), vehicle: Klucel (hydroxypropylcellulose) (HPC)
  T/C: 117 % of control and 110 % of control
endpoint: mean survival time, dose: 6.25 mg/kg/injection, schedule: Q01DX009 (ip), vehicle: Klucel (hydroxypropylcellulose) (HPC)
  T/C: 117 % of control and 110 % of control
endpoint: mean survival time, dose: 12.5 mg/kg/injection, schedule: Q01DX009 (ip), vehicle: Klucel (hydroxypropylcellulose) (HPC)
  T/C: 124 % of control and 103 % of control
endpoint: mean survival time, dose: 25.0 mg/kg/injection, schedule: Q01DX009 (ip), vehicle: Klucel (hydroxypropylcellulose) (HPC)
  T/C: 120 % of control
endpoint: mean survival time, dose: 50.0 mg/kg/injection, schedule: Q01DX009 (ip), vehicle: Klucel (hydroxypropylcellulose) (HPC)
  T/C: 122 % of control and 109 % of control

## O=[N+]([O-])c1ccc(S(=O)(=O)C/C=C/CCl)c([N+](=O)[O-])c1
endpoint: mean survival time, dose: 25.0 mg/kg/injection, schedule: Q01DX009 (ip), vehicle: saline with Tween-80
  T/C: 102 % of control
endpoint: mean survival time, dose: 50.0 mg/kg/injection, schedule: Q01DX009 (ip), vehicle: saline with Tween-80
  T/C: 95 % of control
[1]
  T/C: 94 % of control

## O=C(CCCCCCCCC(=O)OO)OO (tested in a mixture with another compound)
[2]
  T/C: 96 % of control

## O=C1C(CO)(CO)CCC1(CO)CO
[3]
  T/C: 91 % of control
[4]
  T/C: 93 % of control
[5]
  T/C: 98 % of control

## Oc1ccc(C(O)(c2ccccc2)c2ccc(O)c3ccccc23)c2ccccc12
[6]
  T/C: 102 % of control
[7]
  T/C: 96 % of control
[8]
  T/C: 103 % of control

## Cc1ccc(-c2cc(C(=O)O)c3cc(F)ccc3n2)cc1
[6]
  T/C: 101 % of control
[7]
  T/C: 95 % of control
[8]
  T/C: 100 % of control

## O=C(CNC(=O)Nc1cccc(C(F)(F)F)c1)NNC(=O)Nc1ccc(Cl)c([N+](=O)[O-])c1
[2]
  T/C: 89 % of control
endpoint: mean survival time, dose: 200.0 mg/kg/injection, schedule: Q01DX009 (ip), vehicle: saline with Tween-80
  T/C: 86 % of control

## CCCCC(C(=O)OCC)C1=NC(C)(C)CC(C)O1 (centres undefined)
[3]
  T/C: 98 % of control
endpoint: mean survival time, dose: 100.0 mg/kg/injection, schedule: Q04DX003 (ip), vehicle: acetone
  T/C: 101 % of control
[4]
  T/C: 97 % of control
endpoint: mean survival time, dose: 200.0 mg/kg/injection, schedule: Q04DX003 (ip), vehicle: acetone
  T/C: 90 % of control
[5]
  T/C: 97 % of control
endpoint: mean survival time, dose: 400.0 mg/kg/injection, schedule: Q04DX003 (ip), vehicle: acetone
  T/C: 91 % of control

## CCC(=O)NC1CCCCC1
[1]
  T/C: 95 % of control
endpoint: mean survival time, dose: 200.0 mg/kg/injection, schedule: Q01DX001 (ip), vehicle: saline with Tween-80
  T/C: 101 % of control
endpoint: mean survival time, dose: 400.0 mg/kg/injection, schedule: Q01DX001 (ip), vehicle: saline with Tween-80
  T/C: 102 % of control

## CCOC(=O)N1C2CCC(C2)N1C(=O)OCC
[6]
  T/C: 100 % of control
[7]
  T/C: 100 % of control
[8]
  T/C: 87 % of control

## CCN(CC)N1C(=O)[N+](CC)(CC)N=C1[O-]
endpoint: mean survival time, dose: 100.0 mg/kg/injection, schedule: Q04DX003 (ip), vehicle: saline
  T/C: 102 % of control
endpoint: mean survival time, dose: 200.0 mg/kg/injection, schedule: Q04DX003 (ip), vehicle: saline
  T/C: 95 % of control
endpoint: mean survival time, dose: 400.0 mg/kg/injection, schedule: Q04DX003 (ip), vehicle: saline
  T/C: 101 % of control

## CCC1(O)C(=O)OCc2c1cc1n(c2=O)Cc2cc3cc(N)ccc3nc2-1 (centres undefined)
endpoint: median survival time, dose: 1.35 mg/kg/injection, schedule: Q01DX005 (ip), vehicle: saline
  T/C: 243 % of control
endpoint: median survival time, dose: 1.87 mg/kg/injection, schedule: Q01DX005 (ip), vehicle: saline
  T/C: 188 % of control
endpoint: median survival time, dose: 2.0 mg/kg/injection, schedule: Q04DX002 (ip), vehicle: saline
  T/C: 158 % of control
endpoint: median survival time, dose: 2.25 mg/kg/injection, schedule: Q01DX005 (ip), vehicle: saline
  T/C: 243 % of control
endpoint: median survival time, dose: 3.75 mg/kg/injection, schedule: Q01DX005 (ip), vehicle: saline
  T/C: 271 % of control and 365 % of control
endpoint: median survival time, dose: 4.0 mg/kg/injection, schedule: Q04DX002 (ip), vehicle: saline
  T/C: 157 % of control and 170 % of control
endpoint: median survival time, dose: 6.25 mg/kg/injection, schedule: Q01DX005 (ip), vehicle: saline
  T/C: 90 % of control
endpoint: median survival time, dose: 7.5 mg/kg/injection, schedule: Q01DX005 (ip), vehicle: saline
  T/C: 123 % of control
endpoint: median survival time, dose: 8.0 mg/kg/injection, schedule: Q04DX002 (ip), vehicle: saline
  T/C: 256 % of control and 329 % of control
endpoint: median survival time, dose: 15.0 mg/kg/injection, schedule: Q01DX005 (ip), vehicle: saline
  T/C: 100 % of control
endpoint: median survival time, dose: 16.0 mg/kg/injection, schedule: Q04DX002 (ip), vehicle: saline
  T/C: 243 % of control and 329 % of control
endpoint: median survival time, dose: 30.0 mg/kg/injection, schedule: Q01DX005 (ip), vehicle: saline
  T/C: 88 % of control
endpoint: median survival time, dose: 32.0 mg/kg/injection, schedule: Q04DX002 (ip), vehicle: saline
  T/C: 268 % of control
